# Measured values as given in US20070021391A1, “Preventive/remedy for urinary disturbance” (priority 2003, published 2007).
# Where two headings read alike, the source gives them in different places.
# Experiments:
# [1] = target: T1, Acetylcholine esterase (Rattus norvegicus, UniProt P37136); conditions: Literature 6, read-out: Acetylcholine esterase inhibitory activity (IC50); cited from earlier work
# T1 sequence (P37136 32-614): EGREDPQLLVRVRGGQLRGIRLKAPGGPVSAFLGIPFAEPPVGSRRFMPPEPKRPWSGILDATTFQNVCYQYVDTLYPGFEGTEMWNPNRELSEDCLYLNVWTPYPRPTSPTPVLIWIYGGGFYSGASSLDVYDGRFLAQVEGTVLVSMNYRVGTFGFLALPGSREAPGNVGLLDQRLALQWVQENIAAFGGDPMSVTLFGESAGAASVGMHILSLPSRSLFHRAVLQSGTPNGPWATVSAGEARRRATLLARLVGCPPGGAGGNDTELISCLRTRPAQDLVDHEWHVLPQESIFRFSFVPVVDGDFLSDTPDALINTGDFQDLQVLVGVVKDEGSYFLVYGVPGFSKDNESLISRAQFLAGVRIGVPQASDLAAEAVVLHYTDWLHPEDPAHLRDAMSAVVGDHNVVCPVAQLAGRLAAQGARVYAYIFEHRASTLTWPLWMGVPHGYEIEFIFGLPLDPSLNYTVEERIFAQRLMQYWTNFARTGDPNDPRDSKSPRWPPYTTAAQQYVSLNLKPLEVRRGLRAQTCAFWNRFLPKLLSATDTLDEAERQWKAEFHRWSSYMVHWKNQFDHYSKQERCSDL
# [2] = target: Butyrylcholine esterase (Rattus norvegicus, UniProt Q9JKC1); conditions: Literature 6, read-out: Butyrylcholine esterase inhibitory activity (IC50); cited from earlier work
# [3] = tested on: butyrylcholine esterase/acetylcholine esterase; conditions: Literature 7; species not given; cited from earlier work
# [4] = target: Butyrylcholine esterase (Equus caballus, UniProt P81908); conditions: read-out: Butyrylcholine esterase inhibitory activity (IC50); cited from earlier work
# [5] = target: T2, butyrylcholine esterase of human serum origin (Homo sapiens, UniProt P06276); assay: biochemical; type: biochemical
# T2 construct: butyrylcholine esterase of human serum origin; purchased Biogenesis, Poole, UK; host or cells: human serum
# [6] = tested on: bladder muscle; parameters: species or system guinea pig; conditions: for Tension (%): 30 minutes, change of basic tension, 100 mM KCl contraction = 100%
# [7] = tested on: Hartley male guinea pig, urethane anesthesia; assay: Pressure/flow study using guinea pig (Example 3); type: in vivo; conditions: for Amount of urination, proportion for value before administration (%) / At maximum urine flow rate Inner pressure of bladder, proportion for value before administration (%) / Maximum urine flow rate, proportion for value before administration (%): i.v.; for Bladder compliance, proportion for value before administration (%) / Bladder volume, proportion for value before administration (%): iv; for change of the parameters at urination and at collection of urine (text): intravenous administration
# Procedure: A Hartley male guinea pig of 5 weeks old (Japan SLC) was used. After urethane anesthesia, the medial incision of the lower abdomen was carried out, and the bladder was exposed. Two injection needles (20G) with which a polyethylene tube (PE-100) was linked were inserted in the bladder, and one needle was used for injection of saline and another needle was used for measurement of the inner pressure of the bladder. The injection of saline was continuously carried out at a rate of 18 mL/h using a syringe pump (SP-100S, JMS, and Hiroshima), the injection was stopped after intermittent urination was confirmed 3 times at minimum, and the saline in the bladder was removed by suction. Injection was started again, and the injection was stopped when the raise of the inner pressure of the bladder just before urination was confirmed. The amount of urine excreted was measured by an electronic weighing machine (HX-400, A&D, and Tokyo) and the inner pressure of the bladder was measured using a pressure transducer (AP641G, NIPPON KODEN Corporation). The analogue data of the weight of urine and the inner pressure of the bladder were inputted in a multi-channel data analyzer (MP-100A-CE, Biopac systems), and analyzed by a proprietary software (Acqknowledge, Biopac systems). The sampling interval of data was 0.1 second and a low pass filter was applied to the data of discharge amount and urine flow rate at 0.5 Hz in order to remove noise. A delay time of 0.1 second in weighing the urine was rectified, and the urine flow rate was determined by differentiating the value of discharge amount. After a value before twice administration of the drug was measured, the drugs (the compound A, distigmine, neostigigmine and bethanechol) were intravenously administrated. Saline in the bladder was extracted after 10 minutes of administration of the compound A, bethanechol and neostigigmine and after 30 minutes of administration of distigmine, and injection was started again to measure data. The drugs were dissolved with distilled water so that administration volume was 0.5 mL/kg. Parameters (bladder volume, the amount of urination, the maximum urine flow rate, the inner pressure of the bladder at the maximum urine flow, bladder compliance) below were measured. The bladder compliance was calculated from intersection point (the threshold of bladder volume, threshold pressure) which was obtained by determining regression line in the respective curves of the inner pressure of the bladder at collection of urine and urinary reflex. The change rate before and after administration of the drug was calculated for the respective parameters and the calibration of significant difference was carried out by a solvent administration group and Dunnett calibration (Table 6 and Table 7).
# [8] = target: T3, acetylcholine esterase of human erythrocyte origin (Homo sapiens, UniProt P22303); assay: biochemical; type: biochemical
# T3 construct: acetylcholine esterase of human erythrocyte origin; purchased Sigma, St. Louis, Mo., USA; host or cells: human erythrocytes
# Procedure: The AChE inhibitory activity and the BuChE inhibitory activity were determined by a thiocholine method (Ellman method) using acetylcholine esterase of human erythrocyte origin (Sigma, St. Louis, Mo., USA) and butyrylcholine esterase of human serum origin (Biogenesis, Poole, UK). Acetylcholine esterase or butyrylcholine esterase was diluted to a concentration of 0.2 IU/mL with 80 mM tris-HCL buffers (pH=7.4) containing 0.3% bovine serum albumin (BSA) to prepare an enzyme preparation. […] The stock solution was diluted at 3-fold common ratio with 10% DMSO and 80 mM tris-HCl buffers containing 0.3% BSA. On a 96 wells microplate, 20 μL of the drug solution with a given concentration, 30 μL of 80 mM tris-HCl buffers containing 0.3% BSA and 50 μL of the enzyme preparation were distributed, and incubated at room temperature for 1 hour after shaking for 10 seconds. […] For the respective drugs, the test was repeated twice. The % of control of the increase in light absorption was calculated at each concentration with respect to the respective drugs. % of control=increase in light absorption of drug/increase in light absorption of control×100
# [9] = target: Acetylcholine esterase (Electrophorus electricus, UniProt O42275); conditions: Electric eel; Literature 5 (tacrine line prints 6); read-out: Acetylcholine esterase inhibitory activity (IC50); cited from earlier work
# Acetylcholine esterase (Electrophorus electricus, UniProt O42275), sequence (O42275 24-633): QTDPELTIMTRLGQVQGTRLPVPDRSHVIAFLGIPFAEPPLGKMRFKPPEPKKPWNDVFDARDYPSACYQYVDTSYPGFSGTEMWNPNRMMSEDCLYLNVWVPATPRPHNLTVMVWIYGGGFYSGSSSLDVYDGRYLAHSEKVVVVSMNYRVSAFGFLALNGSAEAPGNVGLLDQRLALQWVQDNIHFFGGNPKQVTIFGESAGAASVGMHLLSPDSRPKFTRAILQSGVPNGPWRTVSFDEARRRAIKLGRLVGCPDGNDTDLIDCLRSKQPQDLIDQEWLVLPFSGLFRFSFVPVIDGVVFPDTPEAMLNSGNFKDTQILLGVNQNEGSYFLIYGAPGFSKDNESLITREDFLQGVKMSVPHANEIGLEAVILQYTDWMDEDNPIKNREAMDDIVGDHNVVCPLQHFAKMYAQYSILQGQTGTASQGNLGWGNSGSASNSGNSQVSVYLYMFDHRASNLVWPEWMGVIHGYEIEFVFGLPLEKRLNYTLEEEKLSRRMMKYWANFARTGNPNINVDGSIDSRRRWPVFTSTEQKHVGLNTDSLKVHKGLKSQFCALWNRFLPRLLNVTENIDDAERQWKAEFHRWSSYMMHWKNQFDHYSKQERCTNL
# T2 sequence (P06276 29-602): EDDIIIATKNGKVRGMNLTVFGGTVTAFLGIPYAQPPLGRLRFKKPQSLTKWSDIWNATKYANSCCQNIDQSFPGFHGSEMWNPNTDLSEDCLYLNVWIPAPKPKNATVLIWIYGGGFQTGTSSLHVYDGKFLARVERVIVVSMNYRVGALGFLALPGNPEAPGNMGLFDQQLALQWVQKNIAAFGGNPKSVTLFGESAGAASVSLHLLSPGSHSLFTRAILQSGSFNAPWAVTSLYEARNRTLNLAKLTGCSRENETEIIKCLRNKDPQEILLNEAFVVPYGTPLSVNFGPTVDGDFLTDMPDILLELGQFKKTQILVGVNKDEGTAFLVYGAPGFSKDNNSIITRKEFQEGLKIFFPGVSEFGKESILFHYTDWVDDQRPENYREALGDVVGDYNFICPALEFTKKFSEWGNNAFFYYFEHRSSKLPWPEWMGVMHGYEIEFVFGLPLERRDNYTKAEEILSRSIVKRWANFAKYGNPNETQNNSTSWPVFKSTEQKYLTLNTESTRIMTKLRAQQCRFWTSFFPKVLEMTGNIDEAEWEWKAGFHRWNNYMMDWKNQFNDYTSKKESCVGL
# T3 sequence (P22303 32-617 isoform P22303-2 limits assumed): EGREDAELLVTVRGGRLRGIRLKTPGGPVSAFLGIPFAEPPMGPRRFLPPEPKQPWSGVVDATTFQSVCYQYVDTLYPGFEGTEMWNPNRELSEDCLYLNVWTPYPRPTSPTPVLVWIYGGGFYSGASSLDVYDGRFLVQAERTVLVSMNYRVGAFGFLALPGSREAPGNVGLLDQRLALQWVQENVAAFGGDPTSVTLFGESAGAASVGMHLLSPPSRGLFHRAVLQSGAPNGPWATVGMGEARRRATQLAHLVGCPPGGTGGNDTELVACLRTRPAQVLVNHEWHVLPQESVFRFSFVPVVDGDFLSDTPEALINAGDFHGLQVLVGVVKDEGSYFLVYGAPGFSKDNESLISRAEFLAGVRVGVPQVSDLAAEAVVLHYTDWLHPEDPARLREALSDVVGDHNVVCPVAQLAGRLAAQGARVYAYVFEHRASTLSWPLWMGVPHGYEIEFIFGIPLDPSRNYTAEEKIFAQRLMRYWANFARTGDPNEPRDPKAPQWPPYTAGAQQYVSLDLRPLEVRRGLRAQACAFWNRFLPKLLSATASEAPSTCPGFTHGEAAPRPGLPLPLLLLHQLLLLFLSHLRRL
# Butyrylcholine esterase (Rattus norvegicus, UniProt Q9JKC1), sequence (Q9JKC1 24-597): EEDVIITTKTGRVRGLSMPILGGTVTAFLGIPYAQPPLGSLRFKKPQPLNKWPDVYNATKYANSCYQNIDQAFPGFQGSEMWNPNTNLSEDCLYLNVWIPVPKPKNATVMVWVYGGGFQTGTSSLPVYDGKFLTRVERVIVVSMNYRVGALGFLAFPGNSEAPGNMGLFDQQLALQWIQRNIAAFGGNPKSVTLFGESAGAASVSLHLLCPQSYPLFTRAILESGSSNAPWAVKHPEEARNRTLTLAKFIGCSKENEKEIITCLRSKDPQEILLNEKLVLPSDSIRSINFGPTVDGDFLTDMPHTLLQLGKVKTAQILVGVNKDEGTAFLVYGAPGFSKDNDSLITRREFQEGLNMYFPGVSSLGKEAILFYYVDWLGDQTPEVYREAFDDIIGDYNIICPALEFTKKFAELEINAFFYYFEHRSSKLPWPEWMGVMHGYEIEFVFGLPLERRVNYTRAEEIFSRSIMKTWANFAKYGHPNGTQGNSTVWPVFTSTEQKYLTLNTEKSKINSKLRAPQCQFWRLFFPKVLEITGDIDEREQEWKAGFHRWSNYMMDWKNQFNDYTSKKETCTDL
# Butyrylcholine esterase (Equus caballus, UniProt P81908), sequence (P81908 whole entry): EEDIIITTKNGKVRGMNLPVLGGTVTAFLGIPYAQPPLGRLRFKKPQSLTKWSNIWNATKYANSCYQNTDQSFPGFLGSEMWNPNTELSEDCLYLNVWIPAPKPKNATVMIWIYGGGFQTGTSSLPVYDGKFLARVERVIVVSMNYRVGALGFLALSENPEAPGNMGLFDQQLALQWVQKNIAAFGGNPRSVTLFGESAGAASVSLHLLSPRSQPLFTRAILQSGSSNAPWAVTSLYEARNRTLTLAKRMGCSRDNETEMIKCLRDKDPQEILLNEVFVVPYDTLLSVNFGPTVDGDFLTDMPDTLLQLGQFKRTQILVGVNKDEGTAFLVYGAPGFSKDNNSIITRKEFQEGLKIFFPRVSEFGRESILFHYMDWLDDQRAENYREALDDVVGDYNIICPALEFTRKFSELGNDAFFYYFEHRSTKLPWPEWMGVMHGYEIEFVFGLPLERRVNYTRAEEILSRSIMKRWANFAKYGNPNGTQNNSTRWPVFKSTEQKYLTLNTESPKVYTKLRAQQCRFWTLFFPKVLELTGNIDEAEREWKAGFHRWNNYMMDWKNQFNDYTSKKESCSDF
smiles,measurement,setting,value
O=C(CCC1CCN(Cc2ccccc2)CC1)c1ccc2c(c1)NCCCC2 [TAK-147],IC50,[1],0.051 µM
same,IC50,[2],24 µM
CCc1ccccc1NC(=O)Oc1ccc2c(c1)[C@]1(C)CCN(C)O[C@@H]1N2C [Ganstigmine],Selectivity (butyrylcholine esterase/acetylcholine esterase),[3],115
CN(C)C(=O)Oc1cccc([N+](C)(C)C)c1 [Neostigigmine],IC50,[4],0.1 µM
same,IC50,[5],0.6 µM
same,inhibitory activity for human butyrylcholine esterase,[5],inhibitory activity was confirmed
same,Tension (%),[6]; 0.01 μM,−0.95 ± 0.37%
same,Tension (%),[6]; 0.03 μM,−0.31 ± 0.25%
same,Tension (%),[6]; 0.1 μM,1.52 ± 0.37 %
same,Tension (%),[6]; 0.3 μM,6.87 ± 1.25 %
same,Tension (%),[6]; 1 μM,17.78 ± 2.25 %
same,effect on basic tension,[6]; drug alone,increased basic tension significantly and concentration-dependently
same,"Amount of urination, proportion for value before administration (%)",[7]; 0.01 mg/kg,107.7 ± 17.2%
same,"At maximum urine flow rate Inner pressure of bladder, proportion for value before administration (%)",[7]; 0.01 mg/kg,112.3 ± 4.2%
same,"Maximum urine flow rate, proportion for value before administration (%)",[7]; 0.01 mg/kg,79.4 ± 11.5%
same,"Bladder compliance, proportion for value before administration (%)",[7]; 0.01 mg/kg,61.5 ± 8.6%
same,"Bladder volume, proportion for value before administration (%)",[7]; 0.01 mg/kg,81.1 ± 8.9%
same,"Amount of urination, proportion for value before administration (%)",[7]; 0.03 mg/kg,91.6 ± 14.9%
same,"At maximum urine flow rate Inner pressure of bladder, proportion for value before administration (%)",[7]; 0.03 mg/kg,128.5 ± 10.9 %
same,"Maximum urine flow rate, proportion for value before administration (%)",[7]; 0.03 mg/kg,67.2 ± 9.9%
same,"Bladder compliance, proportion for value before administration (%)",[7]; 0.03 mg/kg,59.4 ± 9.1 %
same,"Bladder volume, proportion for value before administration (%)",[7]; 0.03 mg/kg,86.4 ± 7.5%
same,"Amount of urination, proportion for value before administration (%)",[7]; 0.1 mg/kg,58.3 ± 16.4%
same,"At maximum urine flow rate Inner pressure of bladder, proportion for value before administration (%)",[7]; 0.1 mg/kg,130.9 ± 8.7 %
same,"Maximum urine flow rate, proportion for value before administration (%)",[7]; 0.1 mg/kg,54.0 ± 13.8%
same,"Bladder compliance, proportion for value before administration (%)",[7]; 0.1 mg/kg,31.7 ± 7.1 %
same,"Bladder volume, proportion for value before administration (%)",[7]; 0.1 mg/kg,66.5 ± 14.7%
same,change of the parameters at urination and at collection of urine (text),[7],lowered the bladder compliance significantly
same,change of the parameters at urination and at collection of urine (text),[7]; listed as neostigigmine,did not show clear action for the amount of urination and the maximum urine flow rate and increased urination pressure significantly
same,inhibition of the activity of human acetylcholine esterase,[8],inhibited the activity of human acetylcholine esterase
same,IC50,[9],5 µM
